Experimental data as given in ChEMBL document CHEMBL3244420, “Pyrrole esters of tropanols and related structures as analgesics” (J Med Chem, 1977).
The source made the active and inactive calls. The calls are words filed in the database; no cut-off is given here.

What was measured:
[1] = test system: Mus musculus; assay: Analgesic activity in mouse at 100 mg/kg, sc by hot plate method; assay type: functional, organism-based; design: dose 100 mg/kg
[2] = test system: Mus musculus; assay: Analgesic activity in sc dosed mouse by hot plate method; assay type: functional
[3] = test system: Rhesus monkey; assay: Toxicity in nonwithdrawn monkey assessed as precipitation of abstinence at 5 mg/kg; assay type: organism-based, Macaca mulatta; design: dose 5 mg/kg; conditions: in vivo
[4] = test system: Rhesus monkey; assay: Suppression of narcotic abstinence syndrome in monkey at 5 mg/kg administered as single dose; assay type: functional, organism-based; design: dose 5 mg/kg; conditions: Macaca mulatta
[5] = test system: Mus musculus; assay: Analgesic activity in sc dosed mouse by Nilsen method; assay type: functional
[6] = test system: Rhesus monkey; assay: Toxicity in monkey assessed as morphine-like dependence liability; assay type: organism-based, Macaca mulatta; conditions: in vivo
[7] = test system: Mus musculus; assay: Analgesic activity in mouse at 20 mg/kg, sc by hot plate method; assay type: functional, organism-based; design: dose 20 mg/kg
[8] = test system: Rhesus monkey; assay: Toxicity in monkey assessed as precipitation of abstinence at 3 to 24 mg/kg; assay type: organism-based, Macaca mulatta; design: dose 3-24 mg/kg; conditions: in vivo
[9] = test system: Rhesus monkey; assay: Suppression of narcotic abstinence syndrome in monkey at 3 to 24 mg/kg; assay type: functional, organism-based; conditions: Macaca mulatta
[10] = test system: Mus musculus; assay: Analgesic activity in mouse at 50 mg/kg, sc by hot plate method; assay type: functional, organism-based; design: dose 50 mg/kg

| Compound | ED50 [2] [mg/kg] | ED50 [5] [mg/kg] | other results |
| --- | --- | --- | --- |
| Cc1[nH]c(C)c(C(=O)OC2CCCN(C)C2)c1C (stereo unspecified) | – | – | Activity [1]: inactive |
| Cc1[nH]c(C)c(C(=O)OC2CCN(C)CC2)c1C.O=C(O)C(F)(F)F | 4.9 | 7.1 | Activity [3]: Non-toxic; Activity [4]: inactive; Activity [6]: Non-toxic |
| Cc1[nH]c(C)c(C(=O)OC2CCN(CCc3ccccc3)CC2)c1C | – | – | Activity [7]: Active |
| Cc1[nH]c(C)c(C(=O)O[C@@H]2[C@H]3O[C@H]4C[C@@H]2N(C)[C@H]3C4)c1C | 6 | 28.9 | Activity [8]: Non-toxic; Activity [9]: inactive |
| CN1CC[C@]23c4c5ccc(O)c4O[C@H]2[C@@H](O)C=C[C@H]3[C@H]1C5 [MORPHINE] | 1.2 | 0.8 | – |
| Cc1[nH]c(C)c(C(=O)OC2CC(C)(C)NC(C)(C)C2)c1C | – | – | Activity [1]: inactive |
| Cc1[nH]c(C)c(C(=O)OC2CCN(C)C2)c1C.Cl.O (stereo unspecified) | 64.3 | – | – |
| COc1ccc2c3c1O[C@H]1[C@@H](O)C=C[C@H]4[C@@H](C2)N(C)CC[C@@]341 [CODEINE] | 7.5 | 4.5 | – |
| Cc1c(C(=O)OC2CCN(C)CC2)c(C)n(C)c1C | – | – | Activity [7]: Active |
| Cc1[nH]c(C)c(C(=O)O[C@H]2C[C@H]3CC[C@@H](C2)N3C)c1C.O.O=C(O)C(F)(F)F | 21.3 | – | – |
| Cc1[nH]c(C)c(C(=O)O[C@@H]2C[C@H]3CC[C@@H](C2)N3C)c1C | – | – | Activity [10]: Active |
| Cc1[nH]c(C)c(C(=O)OC2CCN(Cc3ccccc3)CC2)c1C.Cl.O | 6.3 | – | – |
